In US4925650A, “Technetium -99m complex for examining the renal function” (Mallinckrodt, Inc., priority 1988, dated 1990):

Tests used:
[1] = cited from earlier work; for mode of elimination / renal secretion (in words): in vivo
[2] = Liver accumulation in a human being after 40 minutes; format: in vivo; conditions: 0.5 mCi intravenously
Procedure: The liver accumulation is determined after 40 minutes. For the tested Tc99m-LL-isomer it amounts to 2.9%, for Tc99m-MAG3 it amounts to 4.0% of the injected dose.

Row | Molecule | mode of elimination / renal secretion (in words) [1] | liver accumulation [2] | clearance ([1]; chelate of DTPA)
1 | Tc-99m-mercaptoacetyltriglycine [Tc99m-MAG3] | secreted by the kidneys selectively and approximately equally rapidly as iodo-Hippuran | 4.0 % of the injected dose | –
2 | O=C(O)CNC(=O)c1ccccc1[131I] [iodo-131-Hippuran] | secreted actively tubularly | – | –
3 | Tc99m-diethylene triamine pentaacetic acid [DTPA] | eliminated entirely or substantially entirely by glomerular filtration | – | 100 ml of blood plasma per minute
